From patent US20210275506A1, “COMPOSITIONS AND METHODS OF TREATMENT” (Blueberry Therapeutics Limited, priority 2018, published 2021)
Where two headings read alike, the source gives them in different places.

Key:
[1] = Solubility of the APIs in ethanol and water vehicles; assay type: physicochemical; conditions: for solubility: water and ethanol vehicles, read-out: Solubility, 10 mg/ml API solution; for Solubility in words: water and ethanol
IL-8 = experiment: Inflammation assay: IL-8 release of LPS-stimulated THP-1 cells; assay type: cell-based, human; conditions: for MIC for inhibiting the LPS inflammatory response (IL-8) / potency at inhibiting the LPS inflammatory response, in words: dose range 0-30 ug/ml; for MIC for inhibiting the LPS inflammatory response (IL-8) / IL-8 release, in words: 24 h; for IL-8 release, in words: 30 ug/ml API, 100 ug/ml Nanocin
[2] = In vitro permeation, Franz cell, ToF-SIMS of cross sections and tape strips; assay type: in vitro ADME, pig; conditions: for permeation, key findings: all methods
[3] = DLS particle size (z-average) and polydispersity index of API:Nanocin formulations; assay type: physicochemical; set-up: z-average: unit not given here
P. acnes [4] = experiment: Bacterial lawn assay with soaked filter discs; assay type: cell-based, Pseudomonas acnes; conditions: Nanocin 1 mg/ml, Diclofenac 0.1-1 mg/ml
Method: The API's formulated with Nanocin were tested on 2 bacterial strains associated with acne. Staphylococcus epidermidis (S. epidermidis) and the anaerobic Pseudomonas acnes (P. acnes). Two types of assay were performed: (i) a bacterial lawn assay where the formulation was pipetted onto a Whatman filter disc and then added to a dried lawn of the bacteria growing on agar; and also, (ii) a liquid minimum inhibitory concentration (MIC) assay, where the bacteria were grown in 96 well plates. The bacterial lawn assay was much faster and easier to grow with the S. epidermidis as it was under aerobic conditions. The P. acnes growth on the agar plates was slower and difficult to capture on a camera (although possible to view by eye; see FIGS. 5c and 5d).

S. epidermidis = experiment: Liquid MIC assay in 96 well plates; assay type: cell-based, Staphylococcus epidermidis; conditions: Diclofenac 50-500 ug/ml
Method: (§1) The API's formulated with Nanocin were tested on 2 bacterial strains associated with acne. Staphylococcus epidermidis (S. epidermidis) and the anaerobic Pseudomonas acnes (P. acnes). Two types of assay were performed: (i) a bacterial lawn assay where the formulation was pipetted onto a Whatman filter disc and then added to a dried lawn of the bacteria growing on agar; and also, (ii) a liquid minimum inhibitory concentration (MIC) assay, where the bacteria were grown in 96 well plates.
(§2) However, results from both were reliable.

P. acnes [5] = experiment: Liquid MIC assay in 96 well plates; assay type: cell-based, Pseudomonas acnes; conditions: Diclofenac 50-500 ug/ml
Method: as §1, §2

TNF-α = experiment: Inflammation assay: TNF-α release of LPS-stimulated THP-1 cells; assay type: cell-based, human; conditions: final concentration 1 or 0.1 ug/ml
Method: The release of cytokines (looking particularly at those associated with acne inflammation-TNF-α, IL-8, IL-1α) after stimulation with lipopolysaccharide (LPS) is a valid model system to test compounds for potential anti-inflammatory effects (Reference 1)
To standardise conditions for the assay, a LPS dose (0-1 ug/ml) was investigated on TNF-α, IL-8 and IL-1α response, over a time period from 2,4 and 24 hours.
A 1:1 mg/ml (Nanocin:API) was initially formulated in 20% ethanol and the stock formulation was then diluted down with serum free media and tested at a final concentration of 1 or 0.1 ug/ml.

[6] = aqueous with cosolvent or surfactant or cyclodextrin, 5% ethanol
[7] = aqueous with cosolvent or surfactant or cyclodextrin, 10% ethanol
[8] = aqueous with cosolvent or surfactant or cyclodextrin, 15% ethanol
[9] = aqueous with cosolvent or surfactant or cyclodextrin, 20% ethanol
[10] = aqueous with cosolvent or surfactant or cyclodextrin, 30% ethanol

CO[C@H]1C[C@@H]2CC[C@@H](C)[C@@](O)(O2)C(=O)C(=O)N2CCCC[C@H]2C(=O)O[C@H]([C@H](C)C[C@@H]2CC[C@@H](O)[C@H](OC)C2)CC(=O)[C@H](C)/C=C(\C)[C@@H](O)[C@@H](OC)C(=O)[C@H](C)C[C@H](C)/C=C/C=C/C=C/1C [Rapamycin]
solubility [1, 6]: < 10000 µg/mL
solubility [1, 7]: < 10000 µg/mL
solubility [1, 8]: < 10000 µg/mL
solubility [1, 9]: < 10000 µg/mL
solubility [1, 10]: > 10000 µg/mL
solubility ([1]; water): < 10000 µg/mL
MIC for inhibiting the LPS inflammatory response (IL-8) (IL-8): 1 µg/mL
permeation, key findings [2]: no evidence

O=C(O)Cc1ccccc1Nc1c(Cl)cccc1Cl [Diclofenac]
Solubility in words [1]: most soluble
solubility [1, 7]: > 10000 µg/mL
solubility [1, 8]: > 10000 µg/mL
solubility [1, 9]: > 10000 µg/mL
solubility [1, 10]: > 10000 µg/mL
solubility ([1]; water): > 10000 µg/mL
PDI ([3]; 0.33:1 mg/ml API:N): 0.251
PDI ([3]; 1:1 mg/ml API:N): 0.817
inhibition of bacterial growth (halo around disc) (P. acnes [4]): not seen
bacterial growth inhibition by API alone (S. epidermidis): did not exhibit any bacterial growth inhibition
bacterial growth inhibition / anti-bacterial activity of API alone (P. acnes [5]): did not exhibit any bacterial growth inhibition
potency at inhibiting the LPS inflammatory response, in words (IL-8): more potent than Ibuprofen
MIC for inhibiting the LPS inflammatory response (IL-8) (IL-8): 1 µg/mL
LPS-stimulated IL-8 response, in words (IL-8; final concentration 1 or 0.1 ug/ml): reduced the LPS-stimulated inflammatory response
LPS-stimulated TNF-α response, in words (TNF-α): reduced the LPS-stimulated inflammatory response
intensity of diclofenac salt ion markers in stratum corneum ([2]; ToF-SIMS cross sections, 1 mg/ml Diclofenac): slight elevation
diclofenac salt ion markers in tape strips 1-3 (permeation into top layers of stratum corneum) ([2]; ToF-SIMS tape strips, 1 mg/ml Diclofenac): does not and none

CC(C)Cc1ccc(C(C)C(=O)O)cc1 (centres unmarked) [Ibuprofen]
Solubility in words [1]: better solubility in water and ethanol
PDI ([3]; 0.33:1 mg/ml API:N): 0.289
z-average ([3]; 0.33:1 mg/ml API:N): 194.1
PDI ([3]; 1:1 mg/ml API:N): 0.34
z-average ([3]; 1:1 mg/ml API:N): 311.9
IL-8 release, in words (IL-8): very little effect on reducing the IL-8 release
permeation, key findings [2]: no evidence

C=CC[C@@H]1/C=C(\C)C[C@H](C)C[C@H](OC)[C@H]2O[C@@](O)(C(=O)C(=O)N3CCCC[C@H]3C(=O)O[C@H](/C(C)=C/[C@@H]3CC[C@@H](O)[C@H](OC)C3)[C@H](C)[C@@H](O)CC1=O)[C@H](C)C[C@@H]2OC [Tacrolimus]
Solubility, 10 mg/ml API solution ([1]; 10% ethanol): x(better)
solubility [1, 6]: < 10000 µg/mL
solubility [1, 8]: > 10000 µg/mL
solubility [1, 9]: > 10000 µg/mL
solubility [1, 10]: > 10000 µg/mL
solubility ([1]; water): < 10000 µg/mL
PDI ([3]; 0.33:1 mg/ml API:N): 0.332
z-average ([3]; 0.33:1 mg/ml API:N): 41.54
PDI ([3]; 1:1 mg/ml API:N): 1
z-average ([3]; 1:1 mg/ml API:N): 277.1
IL-8 release, in words (IL-8): more effective anti-inflammatory
potency at inhibiting the LPS inflammatory response, in words (IL-8): more potent than Ibuprofen
MIC for inhibiting the LPS inflammatory response (IL-8) (IL-8): 0.3 µg/mL
permeation, key findings [2]: no evidence

Cc1ccc(-c2cc(C(F)(F)F)nn2-c2ccc(S(N)(=O)=O)cc2)cc1 [Celecoxib]
Solubility in words [1]: insolubility
solubility [1, 6]: < 10000 µg/mL
solubility [1, 7]: < 10000 µg/mL
solubility [1, 8]: < 10000 µg/mL
solubility [1, 9]: < 10000 µg/mL
solubility [1, 10]: < 10000 µg/mL
solubility ([1]; water): < 10000 µg/mL
